Each structure is given as a SMILES string. A value given as a limit tells only on which side of the number the result lay.

The experiment deals with T1, hMMP-13CD (Homo sapiens, UniProt P45452).
T1 construct: a human MMP-13 catalytic domain (“hMMP-13CD”)
As to the kind of experiment: Inhibition of MMP-13 catalytic domain (thiopeptolide substrate assay). The class given is biochemical. From the text:
The assays measure the amount by which a test compound reduces the hydrolysis of a thiopeptolide substrate catalyzed by a matrix metalloproteinase enzyme. Such assays are described in detail by Ye et al., in Biochemistry, 1992;31(45):11231-11235, which is incorporated herein by reference. One such assay is described below in Biological Method 1.
Thiopeptolide substrates show virtually no decomposition or hydrolysis at or below neutral pH in the absence of a matrix metalloproteinase enzyme. A typical thiopeptolide substrate commonly utilized for assays is Ac-Pro-Leu-Gly-thioester-Leu-Leu-Gly-OEt. A 100 μL assay mixture will contain 50 mM of N-2-hydroxyethylpiperazine-N′-2-ethanesulfonic acid buffer (“HEPES,” pH 7.0), 10 mM CaCl2, 100 μM thiopeptolide substrate, and 1 mM 5,5′-dithio-bis-(2-nitro-benzoic acid) (DTNB). The thiopeptolide substrate concentration may be varied, for example from 10 to 800 μM to obtain Km and Kcat values. The change in absorbance at 405 nm is monitored on a Thermo Max microplate reader (molecular Devices, Menlo Park, Calif.) at room temperature (22° C.). The calculation of the amount of hydrolysis of the thiopeptolide substrate is based on E412=13600 M^−1 cm^−1 for the DTNB-derived product 3-carboxy-4-nitrothiophenoxide. […]

Regarding `O=C(O)c1ccc(Cn2ccc3ccc(C#CCn4ccnn4)cc3c2=O)cc1` [4-[1-oxo-7-(3-[1,2,3]triazol-1-ylprop-1-ynyl)-1H-isoquinolin-2-ylmethyl]benzoic acid], the IC50 was over 50 µM.

These data come from patent publication US20040043985A1, “6,6-Fused heteroaryl derivatives as matrix metalloproteinase inhibitors” (priority 2002, published 2004).
